Biological target: T1, Kinesin-like protein KIF18A (Homo sapiens, UniProt Q8NI77)
T1 sequence (Q8NI77 whole entry): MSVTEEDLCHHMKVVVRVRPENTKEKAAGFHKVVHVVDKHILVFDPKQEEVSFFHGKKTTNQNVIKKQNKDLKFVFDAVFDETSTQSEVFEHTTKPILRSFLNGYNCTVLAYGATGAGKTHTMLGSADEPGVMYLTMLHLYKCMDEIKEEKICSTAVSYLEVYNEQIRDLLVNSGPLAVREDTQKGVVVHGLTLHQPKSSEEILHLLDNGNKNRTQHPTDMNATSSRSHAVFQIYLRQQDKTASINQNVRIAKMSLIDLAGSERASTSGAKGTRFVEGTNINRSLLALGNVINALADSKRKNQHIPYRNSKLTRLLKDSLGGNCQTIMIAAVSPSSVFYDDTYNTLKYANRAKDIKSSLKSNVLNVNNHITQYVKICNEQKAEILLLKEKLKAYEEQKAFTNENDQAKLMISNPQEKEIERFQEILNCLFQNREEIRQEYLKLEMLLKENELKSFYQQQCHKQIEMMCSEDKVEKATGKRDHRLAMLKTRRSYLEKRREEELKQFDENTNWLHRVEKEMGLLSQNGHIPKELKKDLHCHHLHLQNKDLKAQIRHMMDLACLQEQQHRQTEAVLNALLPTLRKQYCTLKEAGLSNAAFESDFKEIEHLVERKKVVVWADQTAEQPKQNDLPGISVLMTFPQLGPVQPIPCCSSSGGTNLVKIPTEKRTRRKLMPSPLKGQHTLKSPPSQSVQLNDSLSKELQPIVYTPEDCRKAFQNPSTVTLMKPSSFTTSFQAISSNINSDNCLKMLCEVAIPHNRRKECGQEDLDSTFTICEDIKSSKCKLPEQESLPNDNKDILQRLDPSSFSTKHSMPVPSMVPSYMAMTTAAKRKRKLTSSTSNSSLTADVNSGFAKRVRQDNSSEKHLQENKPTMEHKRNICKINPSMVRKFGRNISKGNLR
Assay: Inhibition of KIF18A Microtubule-Dependent ATPase Activity
Protocol: IC50 values were calculated from concentration vs. % Inhibition data via a four-parameter variable slope model.

O=S(=O)(CCO)Nc1cc(N2CCC3(CC2)CC3)c(-c2cn(-c3ccc(F)c(S(=O)(=O)N4CC(F)(F)C4)c3)nn2)cn1 [US20230382889, Compound 112]
IC50: 0.077 µM
